Series [1] has as its system mice. Conditions: general statement; cited from earlier work.
The test system of series [2] is mice. The series is described as follows: Glucose tolerance test (GTT). In kind it is in vivo, mouse. To be noted: 24 h GTT, s.c., dose range 2-5 nmol/kg, percent of vehicle. Put shortly: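 Compounds diluted in PBS from 1 mM DMSO stocks and given subcutaneously 15 min (5-6 h fast), 4 h (16 h overnight fast), 16 h or 24 h before intraperitoneal glucose (2 g/kg). Tail blood glucose read at 10–120 min post-glucose, at least 6 mice per time-point. Glucose AUC over time determined.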

For series [3], the system named is mice. The experiment in a line: Conditioned taste aversion (CTA) in mice. To be noted: s.c., 30 nmol/kg, saccharine preference vs vehicle. In kind it is in vivo, mouse. The method, then:
A value of CTA=0.0-0.6 indicates significant aversion to a compound. The conditioned taste aversion assay measures the preference for a dilute saccharin solution that is associated with compound administration.
One week before start of experiment (Day-7), animals were transferred to single house double grommet cages. A 50 ml water bottle was placed, and consistently replaced when refilled in the same grommet to habituate the animal to a “water” side. After 7 days of baseline water consumption, animals began the taste preference procedure. On Day 1, the animals were weighed and deprived of water at […]. On acquisition day (Day 2), mice had access to a single bottle containing 0.15% saccharin solution, on the opposite side to the “water” habituated side and allowed to consume for 3 h, from 6 pm until 9 pm. The saccharine bottles were then removed and weighed to record the 3 h consumption. […] On Day 3, the water was removed and weighed at 6 pm. On Day 4, both saccharine and water bottles were weighed and returned simultaneously to respective grommet at 6 pm. On Day 5, the bottles were removed at 6 pm and weighed. Saccharine consumption was measured as a percent of the total amount of fluid consumed. The reduction of saccharin consumption during the retrieval was used as a measure of CTA strength. Liraglutide and semaglutide were used as positive controls.

Another series has as its target T1, GIP-R (Homo sapiens, UniProt P48546).
T1 sequence (P48546 22-466): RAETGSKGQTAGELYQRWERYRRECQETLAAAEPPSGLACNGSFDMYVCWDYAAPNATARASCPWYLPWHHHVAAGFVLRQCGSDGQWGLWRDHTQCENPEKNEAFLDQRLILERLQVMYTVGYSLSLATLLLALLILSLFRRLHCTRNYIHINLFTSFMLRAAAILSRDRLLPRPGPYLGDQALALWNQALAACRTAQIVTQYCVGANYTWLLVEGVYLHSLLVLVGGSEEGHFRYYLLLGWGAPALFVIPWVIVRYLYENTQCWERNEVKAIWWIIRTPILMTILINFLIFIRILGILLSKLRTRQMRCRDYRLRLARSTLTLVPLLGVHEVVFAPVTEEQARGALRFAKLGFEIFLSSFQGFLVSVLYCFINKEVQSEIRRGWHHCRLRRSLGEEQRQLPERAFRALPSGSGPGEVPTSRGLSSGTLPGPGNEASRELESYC
The series is described as follows: HitHunter cAMP assay (GIP-R). In kind it is cell-based. The procedure, abridged: (§1)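 Duplicate 22-point, 2-fold agonist titrations applied to receptor-expressing suspension cells in IBMX-containing HBSS; 30 min RT stimulation. Read: luminescent cAMP immunocompetition after O/N dark incubation.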

Series [4] addresses T2, GLP-1R (Homo sapiens, UniProt P43220). The series is described as follows: HitHunter cAMP assay (GLP-1R). In kind it is cell-based. The procedure, abridged:
as §1
(Cyclic AMP is a second messenger, typically raised through Gs and lowered through Gi signalling.)

Series [5] deals with T2, GLP-1R. The experiment in a line: PathHunter β-arrestin assay. In kind it is cell-based. The procedure, abridged: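 Following a 90 min agonist exposure at 37 °C in 0.2% BSA medium, β-arrestin coupling was detected by chemiluminescence after 3 h at room temperature.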
Series [6] addresses T2, GLP-1R. To be noted: general statement; cited from earlier work.

A word on the EC50: it is the concentration needed to bring the measured effect to its halfway point. Low values mean an effect from little substance, high ones a need for much substance. In general, Emax refers to the maximal effect, on the per cent scale that the assay sets.

T2 sequence (P43220 24-463): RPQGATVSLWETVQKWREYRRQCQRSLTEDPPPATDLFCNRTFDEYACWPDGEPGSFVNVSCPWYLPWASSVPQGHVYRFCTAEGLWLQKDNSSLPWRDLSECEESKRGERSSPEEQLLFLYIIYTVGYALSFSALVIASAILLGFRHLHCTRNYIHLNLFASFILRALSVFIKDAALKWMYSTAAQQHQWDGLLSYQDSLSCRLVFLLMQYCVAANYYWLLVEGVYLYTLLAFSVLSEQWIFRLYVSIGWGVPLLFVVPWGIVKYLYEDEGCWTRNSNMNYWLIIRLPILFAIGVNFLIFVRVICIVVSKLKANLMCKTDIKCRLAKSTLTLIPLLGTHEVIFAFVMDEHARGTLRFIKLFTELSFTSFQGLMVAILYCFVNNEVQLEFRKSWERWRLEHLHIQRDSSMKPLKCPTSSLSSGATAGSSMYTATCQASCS

Regarding `CCCCCCCCCCCCCCCC(=O)N[C@@H](CCC(=O)NCCCC[C@H](NC(=O)[C@H](C)NC(=O)[C@H](C)NC(=O)[C@H](CCC(N)=O)NC(=O)CNC(=O)[C@H](CCC(=O)O)NC(=O)[C@H](CC(C)C)NC(=O)[C@H](Cc1ccc(O)cc1)NC(=O)[C@H](CO)NC(=O)[C@H](CO)NC(=O)[C@@H](NC(=O)[C@H](CC(=O)O)NC(=O)[C@H](CO)NC(=O)[C@@H](NC(=O)[C@H](Cc1ccccc1)NC(=O)[C@@H](NC(=O)CNC(=O)[C@H](CCC(=O)O)NC(=O)[C@H](C)NC(=O)[C@@H](N)Cc1cnc[nH]1)[C@@H](C)O)[C@@H](C)O)C(C)C)C(=O)N[C@@H](CCC(=O)O)C(=O)N[C@@H](Cc1ccccc1)C(=O)N[C@H](C(=O)N[C@@H](C)C(=O)N[C@@H](Cc1c[nH]c2ccccc12)C(=O)N[C@@H](CC(C)C)C(=O)N[C@H](C(=O)N[C@@H](CCCNC(=N)N)C(=O)NCC(=O)N[C@@H](CCCNC(=N)N)C(=O)NCC(=O)O)C(C)C)[C@@H](C)CC)C(=O)O` [Liraglutide, liraglutide], in the series on mice [1], the “signal in conditioned taste aversion models” value was “strong signal in conditioned taste aversion models”.

As to `CCCCCCCCCCCCCCCC(=O)N[C@@H](CCC(=O)NCCCC[C@H](NC(=O)[C@H](CO)NC(=O)[C@@H]1CCCN1C(=O)[C@@H]1CCCN1C(=O)[C@@H]1CCCN1C(=O)[C@H](C)NC(=O)CNC(=O)[C@H](CO)NC(=O)[C@H](CO)NC(=O)[C@@H]1CCCN1C(=O)CNC(=O)CNC(=O)[C@H](C)NC(=O)[C@H](CC(C)C)NC(=O)[C@H](CC(C)C)NC(=O)[C@H](Cc1c[nH]c2ccccc12)NC(=O)[C@H](CC(N)=O)NC(=O)[C@@H](NC(=O)[C@H](Cc1ccccc1)NC(=O)[C@H](CCC(=O)O)NC(=O)C(C)(C)NC(=O)[C@H](C)NC(=O)[C@H](C)NC(=O)[C@H](CCC(N)=O)NC(=O)[C@H](CCCCN)NC(=O)[C@H](CC(=O)O)NC(=O)[C@H](CC(C)C)NC(=O)[C@H](Cc1ccc(O)cc1)NC(=O)[C@@H](NC(=O)[C@H](CO)NC(=O)[C@H](Cc1ccc(O)cc1)NC(=O)[C@H](CC(=O)O)NC(=O)[C@H](CO)NC(=O)[C@@H](NC(=O)[C@H](Cc1ccccc1)NC(=O)[C@@H](NC(=O)CNC(=O)[C@H](CCC(=O)O)NC(=O)CCNC(=O)CN1CCCC1=O)[C@@H](C)O)[C@@H](C)O)[C@@H](C)CC)C(C)C)C(N)=O)C(=O)O` [Compound 264], in the series with mice [2], the AUC score is listed as 3 (AUC score 3 = 51-75%). In addition, the CTA score in the series on mice [3] is recorded as 1 (Score 1 = 0-25%). Moreover, the concentration for a half-maximal effect (EC50) was 1 to 10 nM on GIP-R (EC50 GIP-R/nM, Table 3A, cAMP); < 0.1 nM on GLP-1R [4]; < 10 nM on GLP-1R [5]. Moreover, the maximum response (Emax) at GIP-R (read-out: (Emax) GIP-R) was determined as 90%; on GLP-1R [4] (read-out: (Emax) GLP-1R), 100%.

Consider glucagon-like peptide-1 [GLP-1], for which, at GLP-1R [6], the β-arrestin recruitment result is recorded as “potent recruiters of β-arrestin”.

(Values after US20260176320A1, “MODULATORS OF G-PROTEIN COUPLED RECEPTORS” (priority 2018, published 2026).)
